Results taken from US20230322723A1, “COMPOUNDS FOR SUPPRESSING EGFR MUTANT CANCER AND PHARMACEUTICAL USE THEREOF” (J2H BIOTECH INC., priority 2020, published 2023).

Assays:
EGFR^del19+T790M+C797S = assay: EGFR protein degradation test (Western blot) in Ba/F3 cells expressing mutant EGFR del19+T790M+C797S (DTC); type: cell-based; settings: compounds at 0.1 μM and 1 μM, 24 hours, Western blot with EGFR antibody
Experimental: (§1) The ability of the compounds of the present invention to degrade the mutant EGFR protein was confirmed in Ba/F3 cells expressing normal EGFR, mutant EGFR^del19+T790M+C797S or mutant EGFR^L858R+T790M+C797S. A Western blot test using the EGFR antibody was performed.
(§2) Specifically, Ba/F3 cells expressing EGFR were cultured in RPMI 1640 (Gibco, NY, USA) containing 10% fetal bovine serum (FBS, Gibco, NY, USA). Cells expressing normal EGFR, mutant EGFR^del19+T790M+C797S or mutant EGFR^L858R+T790M+C797S were treated with the compounds of the present invention at concentrations of 0.1 μM and 1 μM, respectively, for 24 hours. After that, it was washed twice with phosphate buffered saline (PBS) and SDS-PAGE was performed with 30 μg of cell lysate. After the protein separated on the gel was transferred to a nitrocellulose membrane, the expression level of the EGFR protein was confirmed using an EGFR antibody (Santa Cruz biotechnology, Santacruz, CA, USA). EGFR bands separated by Western blotting were quantitatively analyzed with Fluo-S MultiImager (Bio-Rad, Hercules, CA, USA).

EGFR^L858R+T790M+C797S = target: T1, EGFR^L858R+T790M+C797S (Homo sapiens, UniProt P00533, C797S/L858R/T790M); assay: EGFR protein degradation test (Western blot) in Ba/F3 cells expressing mutant EGFR L858R+T790M+C797S (LTC); type: cell-based; settings: compounds at 0.1 μM and 1 μM, 24 hours, Western blot with EGFR antibody
T1 construct: expressed in transfected cells; host or cells: Ba/F3
Experimental: as §1, §2

T1 sequence (P00533 25-1210 T790M/C797S/L858R): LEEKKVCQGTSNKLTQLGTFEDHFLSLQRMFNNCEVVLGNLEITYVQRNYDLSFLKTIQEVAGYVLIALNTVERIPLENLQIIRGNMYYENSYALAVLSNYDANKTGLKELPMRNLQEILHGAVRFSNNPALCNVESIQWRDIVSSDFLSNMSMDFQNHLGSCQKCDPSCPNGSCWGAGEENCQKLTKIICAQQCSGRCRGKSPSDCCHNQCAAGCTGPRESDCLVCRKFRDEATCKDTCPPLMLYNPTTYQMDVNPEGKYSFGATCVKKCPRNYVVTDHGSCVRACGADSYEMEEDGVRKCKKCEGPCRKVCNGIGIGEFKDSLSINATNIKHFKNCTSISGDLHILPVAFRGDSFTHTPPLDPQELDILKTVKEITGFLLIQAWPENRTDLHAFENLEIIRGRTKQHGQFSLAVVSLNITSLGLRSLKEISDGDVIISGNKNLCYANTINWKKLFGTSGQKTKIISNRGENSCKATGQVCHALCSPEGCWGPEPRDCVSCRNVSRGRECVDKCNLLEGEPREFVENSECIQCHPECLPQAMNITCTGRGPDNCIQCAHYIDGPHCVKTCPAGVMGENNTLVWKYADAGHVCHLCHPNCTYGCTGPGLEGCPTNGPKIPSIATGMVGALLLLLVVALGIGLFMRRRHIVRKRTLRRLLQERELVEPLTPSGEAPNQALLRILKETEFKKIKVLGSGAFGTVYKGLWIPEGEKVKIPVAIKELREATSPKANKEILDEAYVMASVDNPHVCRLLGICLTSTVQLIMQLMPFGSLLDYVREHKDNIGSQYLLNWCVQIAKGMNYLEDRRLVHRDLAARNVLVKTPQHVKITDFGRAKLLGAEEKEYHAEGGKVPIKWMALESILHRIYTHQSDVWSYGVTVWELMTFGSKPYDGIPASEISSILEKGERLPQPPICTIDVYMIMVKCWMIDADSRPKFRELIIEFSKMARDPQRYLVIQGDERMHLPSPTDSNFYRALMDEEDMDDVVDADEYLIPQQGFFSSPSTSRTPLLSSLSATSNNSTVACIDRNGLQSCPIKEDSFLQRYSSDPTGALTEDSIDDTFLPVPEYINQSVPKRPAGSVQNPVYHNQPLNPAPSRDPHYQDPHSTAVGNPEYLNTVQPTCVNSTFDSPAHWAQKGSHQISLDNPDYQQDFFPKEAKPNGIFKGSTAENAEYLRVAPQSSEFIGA

SMILES | DTC (EGFR^del19+T790M+C797S) protein degradation (EGFR^del19+T790M+C797S) | LTC (EGFR^L858R+T790M+C797S) protein degradation (EGFR^L858R+T790M+C797S)
COc1cc(N2CCC(N3CCN(CCCCOc4cccc5c4C(=O)N(C4CCC(=O)NC4=O)C5=O)CC3)CC2)ccc1Nc1ncc(Cl)c(Nc2ccccc2N(C)S(C)(=O)=O)n1 (stereo not shown) [Compound 15, N-(2-((5-chloro-2-((4-(4-(4-(4-((2-(2,6-dioxopiperidin-3-yl)-1,3-dioxoisoindolin-4-yl)oxy)butyl)piperazin-1-yl)piperidin-1-yl)-2-methoxyphenyl)amino)pyrimidin-4-yl)amino)phenyl)-N-methylmethanesulfonamide] | + (Protein degradation 20~80%) | + (Protein degradation 20~80%)
COc1cc(N2CCC(N3CCN(CCOc4cccc5c4C(=O)N(C4CCC(=O)NC4=O)C5=O)CC3)CC2)ccc1Nc1ncc(Cl)c(Nc2ccccc2N(C)S(C)(=O)=O)n1 (stereo not shown) [Compound 52, N-(2-((5-chloro-2-((4-(4-(4-(2-((2-(2,6-dioxopiperidin-3-yl)-1,3-dioxoisoindolin-4-yl)oxy)ethyl)piperazin-1-yl)piperidin-1-yl)-2-methoxyphenyl)amino)pyrimidin-4-yl)amino)phenyl)-N-methylmethanesulfonamide] | + (Protein degradation 20~80%) | − (Protein degradation < 20%)
COc1cc(N2CCC(N3CCN(CCCCC(=O)N[C@H](C(=O)N4C[C@H](O)C[C@@H]4C(=O)NCc4ccc(-c5scnc5C)cc4)C(C)(C)C)CC3)CC2)ccc1Nc1ncc(Cl)c(Nc2ccccc2N(C)S(C)(=O)=O)n1 [Compound 7, (2R,4R)-1-((S)-2-(5-(4-(1-(4-((5-chloro-4-((2-(N-methylmethylsulfonamido)phenyl)amino)pyrimidin-2-yl)amino)-3-methoxyphenyl)piperidin-4-yl)piperazin-1-yl)pentanamido)-3,3-dimethylbutanoyl)-4-hydroxy-N-(4-(4-methylthiazol-5-yl)benzyl)pyrrolidin-2-carboxamide] | + (Protein degradation 20~80%) | − (Protein degradation < 20%)
COc1cc(N2CCN(CCCCOc3cccc4c3C(=O)N(C3CCC(=O)NC3=O)C4=O)CC2)ccc1Nc1ncc(Cl)c(Nc2ccccc2N(C)S(C)(=O)=O)n1 (stereo not shown) [Compound 14, N-(2-((5-chloro-2-((4-(4-(4-((2-(2,6-dioxopiperidin-3-yl)-1,3-dioxoisoindolin-4-yl)oxy)butyl)piperazin-1-yl)-2-methoxyphenyl)amino)pyrimidin-4-yl)amino)phenyl)-N-methylmethanesulfonamide] | − (Protein degradation < 20%) | + (Protein degradation 20~80%)
Cc1ncsc1-c1ccc(CNC(=O)[C@H]2C[C@@H](O)CN2C(=O)[C@@H](NC(=O)CCCCN2CCN(C3CCN(c4ccc(Nc5ncc(Cl)c(Nc6ccccc6N(C)S(C)(=O)=O)n5)cc4F)CC3)CC2)C(C)(C)C)cc1 [Compound 18, (2R,4R)-1-((S)-2-(5-(4-(1-(4-((5-chloro-4-((2-(N-methylmethylsulfonamido)phenyl)amino)pyrimidin-2-yl)amino)-2-fluorophenyl)piperidin-4-yl)piperazin-1-yl)pentanamido)-3,3-dimethylbutanoyl)-4-hydroxy-N-(4-(4-methylthiazol-5-yl)benzyl)pyrrolidin-2-carboxamide] | − (Protein degradation < 20%) | − (Protein degradation < 20%)
COc1cc(N2CCC(N3CCN(CCCCCCCCCCC(=O)Nc4cccc5c4C(=O)N(C4CCC(=O)NC4=O)C5=O)CC3)CC2)ccc1Nc1ncc(Cl)c(Nc2ccccc2N(C)S(C)(=O)=O)n1 (stereo not shown) [Compound 5, 11-(4-(1-(4-((5-chloro-4-((2-(N-methylmethylsulfonamido)phenyl)amino)pyrimidin-2-yl)amino)-3-methoxyphenyl)piperidin-4-yl)piperazin-1-yl)-N-(2-(2,6-dioxopiperidin-3-yl)-1,3-dioxoisoindolin-4-yl)undecanamide] | − (Protein degradation < 20%) | − (Protein degradation < 20%)
COc1cc(N2CCN(CCOC3CN(c4ccc5c(c4)C(=O)N(C4CCC(=O)NC4=O)C5=O)C3)CC2)ccc1Nc1ncc(Cl)c(Nc2ccccc2N(C)S(C)(=O)=O)n1 (stereo not shown) [Compound 33, N-(2-((5-chloro-2-((4-(4-(2-((1-(2-(2,6-dioxopiperidin-3-yl)-1,3-dioxoisoindolin-5-yl)azetidin-3-yl)oxy)ethyl)piperazin-1-yl)-2-methoxyphenyl)amino)pyrimidin-4-yl)amino)phenyl)-N-methylmethanesulfonamide] | + (Protein degradation 20~80%) | − (Protein degradation < 20%)
COc1cc(N2CCN(CCOCCNc3cccc4c3C(=O)N(C3CCC(=O)NC3=O)C4=O)CC2)ccc1Nc1ncc(Cl)c(Nc2ccccc2N(C)S(C)(=O)=O)n1 (stereo not shown) [Compound 16] | − (Protein degradation < 20%) | + (Protein degradation 20~80%)
CN(c1ccccc1Nc1nc(Nc2ccc(N3CCN(CCOC4CN(c5ccc6c(c5)C(=O)N(C5CCC(=O)NC5=O)C6=O)C4)CC3)c(F)c2)ncc1Cl)S(C)(=O)=O (stereo not shown) [Compound 40, N-(2-((5-chloro-2-((4-(4-(2-((1-(2-(2,6-dioxopiperidin-3-yl)-1,3-dioxoisoindolin-5-yl)azetidin-3-yl)oxy)ethyl)piperazin-1-yl)-3-fluorophenyl)amino)pyrimidin-4-yl)amino)phenyl)-N-methylmethanesulfonamide] | + (Protein degradation 20~80%) | + (Protein degradation 20~80%)
COc1cc(N2CCN(CCCCCCCCCCC(=O)Nc3cccc4c3C(=O)N(C3CCC(=O)NC3=O)C4=O)CC2)ccc1Nc1ncc(Cl)c(Nc2ccccc2N(C)S(C)(=O)=O)n1 (stereo not shown) [Compound 4, 11-(4-(4-((5-chloro-4-((2-(N-methylmethylsulfonamido)phenyl)amino)pyrimidin-2-yl)amino)-3-methoxyphenyl)piperazin-1-yl)-N-(2-(2,6-dioxopiperidin-3-yl)-1,3-dioxoisoindolin-4-yl)undecanamide] | − (Protein degradation < 20%) | − (Protein degradation < 20%)
COc1cc(N2CCN(CCOCCOc3cccc4c3C(=O)N(C3CCC(=O)NC3=O)C4=O)CC2)ccc1Nc1ncc(Cl)c(Nc2ccccc2N(C)S(C)(=O)=O)n1 (stereo not shown) [Compound 12, N-(2-((5-chloro-2-((4-(4-(2-(2-((2-(2,6-dioxopiperidin-3-yl)-1,3-dioxoisoindolin-4-yl)oxy)ethoxy)ethyl)piperazin-1-yl)-2-methoxyphenyl)amino)pyrimidin-4-yl)amino)phenyl)N-methylmethanesulfonamide] | − (Protein degradation < 20%) | − (Protein degradation < 20%)
COc1cc(N2CCN(CC3CCN(c4ccc5c(c4)C(=O)N(C4CCC(=O)NC4=O)C5=O)CC3)CC2)ccc1Nc1ncc(Cl)c(Nc2ccccc2N(C)S(C)(=O)=O)n1 (stereo not shown) [Compound 68] | + (Protein degradation 20~80%) | ++ (Protein degradation > 80%)
COc1cc(N2CCC3(CCN(CC(=O)N[C@H](C(=O)N4C[C@H](O)CC4C(=O)NCc4ccc(-c5scnc5C)cc4)C(C)(C)C)CC3)CC2)ccc1Nc1ncc(Cl)c(Nc2ccccc2N(C)S(C)(=O)=O)n1 (stereo in doubt) [Compound 31, (2R,4R)-1-((S)-2-(2-(9-(4-((5-chloro-4-((2-(N-methylmethylsulfonamido)phenyl)amino)pyrimidin-2-yl)amino)-3-methoxyphenyl)-3,9-diazaspiro[5,5]undecan-3-yl)acetamido)-3,3-dimethylbutanoyl)-4-hydroxy-N-(4-(4-methylthiazol-5-yl)benzyl)pyrrolidin-2-carboxamide] | ++ (Protein degradation > 80%) | + (Protein degradation 20~80%)
CN(c1ccccc1Nc1nc(Nc2ccc(N3CCN(CC4CCN(CCOc5cccc6c5C(=O)N(C5CCC(=O)NC5=O)C6=O)CC4)CC3)c(F)c2)ncc1Cl)S(C)(=O)=O (stereo not shown) [Compound 46, N-(2-((5-chloro-2-((4-(4-((1-(2-((2-(2,6-dioxopiperidin-3-yl)-1,3-dioxoisoindolin-4-yl)oxy)ethyl)piperidin-4-yl)methyl)piperazin-1-yl)-3-fluorophenyl)amino)pyrimidin-4-yl)amino)phenyl)-N-methylmethanesulfonamide] | + (Protein degradation 20~80%) | + (Protein degradation 20~80%)
